Laboratory results as given in ChEMBL document CHEMBL4052642, “4-Methyl-6,7-dihydro-4H-triazolo[4,5-c]pyridine-Based P2X7 Receptor Antagonists: Optimization of Pharmacokinetic Properties Leading to the Identification of a Clinical Candidate” (J Med Chem, 2017).
Converted amounts (≈) assume the structure as drawn.

How the values were obtained:
[1] = target: P2X purinoceptor 7 (Homo sapiens, UniProt Q99572); test: Antagonist activity at human P2X7
[2] = target: Cytochrome P450 3A4 (Homo sapiens, UniProt P08684); test: Inhibition of CYP3A4 in human liver microsomes using midazolam as substrate after 15 mins by LC-MS/MS analysis; format: ADME
[3] = target: Cytochrome P450 2D6 (Homo sapiens, UniProt P10635); test: Inhibition of CYP2D6 in human liver microsomes using dextromethorphan as substrate after 15 mins by LC-MS/MS analysis; format: ADME
[4] = target: Cytochrome P450 2C9 (Homo sapiens, UniProt P11712); test: Inhibition of CYP2C9 in human liver microsomes using diclofenac as substrate after 15 mins by LC-MS/MS analysis; format: ADME
[5] = target: Cytochrome P450 2C19 (Homo sapiens, UniProt P33261); test: Inhibition of CYP2C19 in human liver microsomes using S-mephenytoin as substrate after 15 mins by LC-MS/MS analysis; format: ADME
[6] = target: T1, Cytochrome P450 2C8 (Homo sapiens, UniProt P10632); test: Inhibition of CYP2C8 in human liver microsomes using paclitaxel as substrate after 15 mins by LC-MS/MS analysis; format: ADME
T1 sequence (P10632 whole entry): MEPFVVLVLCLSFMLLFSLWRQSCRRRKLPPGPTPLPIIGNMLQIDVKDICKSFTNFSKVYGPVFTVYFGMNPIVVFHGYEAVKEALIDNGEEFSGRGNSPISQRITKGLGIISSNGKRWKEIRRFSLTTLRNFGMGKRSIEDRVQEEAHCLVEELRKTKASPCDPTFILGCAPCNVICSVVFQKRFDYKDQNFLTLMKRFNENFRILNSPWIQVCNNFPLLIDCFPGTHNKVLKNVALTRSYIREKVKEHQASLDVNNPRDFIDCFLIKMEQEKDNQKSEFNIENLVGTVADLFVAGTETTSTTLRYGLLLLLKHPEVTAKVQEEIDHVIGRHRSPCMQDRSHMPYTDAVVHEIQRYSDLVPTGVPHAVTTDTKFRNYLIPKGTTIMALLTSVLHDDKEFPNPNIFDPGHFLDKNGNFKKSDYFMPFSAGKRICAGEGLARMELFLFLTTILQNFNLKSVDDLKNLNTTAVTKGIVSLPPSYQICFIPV

[7] = target: T2, Cytochrome P450 1A2 (Homo sapiens, UniProt P05177); test: Inhibition of CYP1A2 in human liver microsomes using phenacetin as substrate after 15 mins by LC-MS/MS analysis; format: ADME
T2 sequence (P05177 whole entry): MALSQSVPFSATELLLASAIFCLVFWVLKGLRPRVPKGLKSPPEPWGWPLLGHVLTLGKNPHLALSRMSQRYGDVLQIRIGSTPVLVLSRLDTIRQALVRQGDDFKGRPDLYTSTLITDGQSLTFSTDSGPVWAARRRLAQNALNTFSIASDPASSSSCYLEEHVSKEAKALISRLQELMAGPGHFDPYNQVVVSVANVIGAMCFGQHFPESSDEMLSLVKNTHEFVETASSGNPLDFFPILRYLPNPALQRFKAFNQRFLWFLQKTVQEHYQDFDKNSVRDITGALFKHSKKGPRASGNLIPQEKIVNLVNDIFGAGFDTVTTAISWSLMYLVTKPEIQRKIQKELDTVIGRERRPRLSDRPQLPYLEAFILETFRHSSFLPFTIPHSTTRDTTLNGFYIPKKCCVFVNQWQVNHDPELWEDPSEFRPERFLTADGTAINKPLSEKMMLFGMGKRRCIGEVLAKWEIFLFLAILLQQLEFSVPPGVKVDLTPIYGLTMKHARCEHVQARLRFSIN

[8] = Solubility of compound in phosphate buffer at pH 7 after 3 days; format: physicochemical
[9] = Solubility of compound in phosphate buffer at pH 2 after 3 days; format: physicochemical
[10] = Protein binding in human plasma at 1 uM after 6 hrs by equilibrium dialysis method; format: ADME, cell-free; conditions: read-out: PPB (converted)
[11] = Protein binding in mouse plasma at 1 uM after 6 hrs by equilibrium dialysis method; format: ADME, cell-free; conditions: read-out: PPB (converted)
[12] = Protein binding in rat plasma at 1 uM after 6 hrs by equilibrium dialysis method; format: ADME, cell-free; conditions: read-out: PPB (converted)
[13] = target: Voltage-gated inwardly rectifying potassium channel KCNH2 (Homo sapiens, UniProt Q12809); test: Inhibition of [3H]-dofetilide binding to human ERG expressed in HEK293 cells; format: cell-based
[14] = system: Rattus norvegicus; test: Inhibition of Bz-ATP-induced IL-1beta release in sc dosed Sprague-Dawley rat hippocampus preincubated for 1 hr followed by Bz-ATP challenge measured after 2 hrs by microdialysis method; format: functional, organism-based
[15] = system: Rattus norvegicus; test: Ex vivo receptor occupancy at P2X7 in sc dosed Sprague-Dawley rat brain after 60 mins by autoradiography; format: functional
[16] = Oral bioavailability in Sprague-Dawley rat at 5 mg/kg by LC-MS/MS analysis; format: ADME, organism-based; conditions: in vivo
[17] = Oral bioavailability in beagle dog at 3 mg/kg by LC-MS/MS analysis; format: ADME, organism-based, Canis lupus familiaris; conditions: in vivo
[18] = Half life in beagle dog at 1 mg/kg, iv by LC-MS/MS analysis; format: ADME, organism-based, Canis lupus familiaris; conditions: in vivo
[19] = Volume of distribution at steady state in beagle dog at 1 mg/kg, iv or 3 mg/kg, po by LC-MS/MS analysis; format: ADME, organism-based, Canis lupus familiaris; conditions: in vivo, read-out: Vdss
[20] = Half life in Sprague-Dawley rat at 1 mg/kg, iv by LC-MS/MS analysis; format: ADME, organism-based; conditions: in vivo
[21] = Volume of distribution at steady state in Sprague-Dawley rat at 1 mg/kg, iv or 5 mg/kg, po by LC-MS/MS analysis; format: ADME, organism-based; conditions: in vivo, read-out: Vdss
[22] = Clearance in beagle dog at 1 mg/kg, iv or 3 mg/kg, po by LC-MS/MS analysis; format: ADME, organism-based, Canis lupus familiaris; conditions: in vivo
[23] = Clearance in Sprague-Dawley rat at 1 mg/kg, iv or 5 mg/kg, po by LC-MS/MS analysis; format: ADME, organism-based; conditions: in vivo
[24] = Protein binding in rat brain at 5 uM after 5 hrs by equilibrium dialysis method; format: ADME, tissue-based; conditions: read-out: PB (converted)

Cytochrome P450 3A4, sequence (P08684 whole entry): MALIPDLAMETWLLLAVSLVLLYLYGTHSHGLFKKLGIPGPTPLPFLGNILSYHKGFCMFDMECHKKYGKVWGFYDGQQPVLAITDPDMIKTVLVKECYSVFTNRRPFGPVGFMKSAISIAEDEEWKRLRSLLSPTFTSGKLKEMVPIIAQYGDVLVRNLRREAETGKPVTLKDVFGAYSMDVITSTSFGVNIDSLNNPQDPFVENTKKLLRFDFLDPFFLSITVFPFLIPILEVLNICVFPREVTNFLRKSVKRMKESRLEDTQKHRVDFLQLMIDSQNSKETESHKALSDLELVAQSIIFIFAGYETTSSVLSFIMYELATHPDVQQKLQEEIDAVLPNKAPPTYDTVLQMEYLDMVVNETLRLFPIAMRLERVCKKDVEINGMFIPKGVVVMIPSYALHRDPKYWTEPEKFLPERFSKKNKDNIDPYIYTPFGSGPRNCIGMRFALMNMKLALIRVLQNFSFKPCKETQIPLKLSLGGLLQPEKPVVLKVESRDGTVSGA
Cytochrome P450 2C19, sequence (P33261 whole entry): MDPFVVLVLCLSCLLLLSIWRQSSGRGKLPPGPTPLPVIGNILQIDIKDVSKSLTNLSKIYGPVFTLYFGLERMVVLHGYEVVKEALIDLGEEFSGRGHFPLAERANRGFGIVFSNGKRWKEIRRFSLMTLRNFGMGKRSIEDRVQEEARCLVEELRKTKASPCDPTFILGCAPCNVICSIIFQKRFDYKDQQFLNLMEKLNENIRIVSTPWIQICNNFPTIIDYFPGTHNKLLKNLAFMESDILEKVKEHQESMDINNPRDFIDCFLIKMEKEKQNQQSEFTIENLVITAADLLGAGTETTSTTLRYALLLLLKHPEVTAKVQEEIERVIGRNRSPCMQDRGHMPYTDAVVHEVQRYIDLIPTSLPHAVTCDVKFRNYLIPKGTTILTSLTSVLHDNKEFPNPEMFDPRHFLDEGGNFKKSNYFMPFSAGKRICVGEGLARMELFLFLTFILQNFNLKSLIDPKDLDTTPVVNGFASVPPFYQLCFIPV
Cytochrome P450 2C9, sequence (P11712 whole entry): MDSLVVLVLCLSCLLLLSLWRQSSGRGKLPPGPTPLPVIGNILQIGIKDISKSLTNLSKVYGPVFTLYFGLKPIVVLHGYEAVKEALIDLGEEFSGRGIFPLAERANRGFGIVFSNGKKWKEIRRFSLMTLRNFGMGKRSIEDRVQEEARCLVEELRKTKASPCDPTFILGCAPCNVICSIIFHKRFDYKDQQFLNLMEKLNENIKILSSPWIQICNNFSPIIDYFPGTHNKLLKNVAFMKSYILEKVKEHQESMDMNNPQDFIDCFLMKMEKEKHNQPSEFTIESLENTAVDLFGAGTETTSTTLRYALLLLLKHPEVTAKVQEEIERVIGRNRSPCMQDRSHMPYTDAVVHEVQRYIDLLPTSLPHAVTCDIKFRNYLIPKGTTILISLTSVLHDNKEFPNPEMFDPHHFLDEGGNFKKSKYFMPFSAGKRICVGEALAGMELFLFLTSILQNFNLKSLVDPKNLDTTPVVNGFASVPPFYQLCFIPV
Cytochrome P450 2D6, sequence (P10635 whole entry): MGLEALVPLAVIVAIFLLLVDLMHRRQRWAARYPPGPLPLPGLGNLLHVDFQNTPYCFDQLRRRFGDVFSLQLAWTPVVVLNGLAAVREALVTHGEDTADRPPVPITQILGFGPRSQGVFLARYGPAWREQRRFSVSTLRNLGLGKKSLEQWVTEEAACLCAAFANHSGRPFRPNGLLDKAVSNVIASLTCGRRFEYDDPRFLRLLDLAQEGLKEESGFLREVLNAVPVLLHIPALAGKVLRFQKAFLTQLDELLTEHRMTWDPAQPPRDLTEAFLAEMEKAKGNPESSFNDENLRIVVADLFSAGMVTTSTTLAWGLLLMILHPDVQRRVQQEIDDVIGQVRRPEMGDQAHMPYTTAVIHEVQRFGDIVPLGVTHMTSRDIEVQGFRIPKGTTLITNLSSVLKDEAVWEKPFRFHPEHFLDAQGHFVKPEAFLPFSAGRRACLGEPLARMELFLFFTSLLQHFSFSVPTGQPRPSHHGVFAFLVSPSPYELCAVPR
Voltage-gated inwardly rectifying potassium channel KCNH2, sequence (Q12809 whole entry): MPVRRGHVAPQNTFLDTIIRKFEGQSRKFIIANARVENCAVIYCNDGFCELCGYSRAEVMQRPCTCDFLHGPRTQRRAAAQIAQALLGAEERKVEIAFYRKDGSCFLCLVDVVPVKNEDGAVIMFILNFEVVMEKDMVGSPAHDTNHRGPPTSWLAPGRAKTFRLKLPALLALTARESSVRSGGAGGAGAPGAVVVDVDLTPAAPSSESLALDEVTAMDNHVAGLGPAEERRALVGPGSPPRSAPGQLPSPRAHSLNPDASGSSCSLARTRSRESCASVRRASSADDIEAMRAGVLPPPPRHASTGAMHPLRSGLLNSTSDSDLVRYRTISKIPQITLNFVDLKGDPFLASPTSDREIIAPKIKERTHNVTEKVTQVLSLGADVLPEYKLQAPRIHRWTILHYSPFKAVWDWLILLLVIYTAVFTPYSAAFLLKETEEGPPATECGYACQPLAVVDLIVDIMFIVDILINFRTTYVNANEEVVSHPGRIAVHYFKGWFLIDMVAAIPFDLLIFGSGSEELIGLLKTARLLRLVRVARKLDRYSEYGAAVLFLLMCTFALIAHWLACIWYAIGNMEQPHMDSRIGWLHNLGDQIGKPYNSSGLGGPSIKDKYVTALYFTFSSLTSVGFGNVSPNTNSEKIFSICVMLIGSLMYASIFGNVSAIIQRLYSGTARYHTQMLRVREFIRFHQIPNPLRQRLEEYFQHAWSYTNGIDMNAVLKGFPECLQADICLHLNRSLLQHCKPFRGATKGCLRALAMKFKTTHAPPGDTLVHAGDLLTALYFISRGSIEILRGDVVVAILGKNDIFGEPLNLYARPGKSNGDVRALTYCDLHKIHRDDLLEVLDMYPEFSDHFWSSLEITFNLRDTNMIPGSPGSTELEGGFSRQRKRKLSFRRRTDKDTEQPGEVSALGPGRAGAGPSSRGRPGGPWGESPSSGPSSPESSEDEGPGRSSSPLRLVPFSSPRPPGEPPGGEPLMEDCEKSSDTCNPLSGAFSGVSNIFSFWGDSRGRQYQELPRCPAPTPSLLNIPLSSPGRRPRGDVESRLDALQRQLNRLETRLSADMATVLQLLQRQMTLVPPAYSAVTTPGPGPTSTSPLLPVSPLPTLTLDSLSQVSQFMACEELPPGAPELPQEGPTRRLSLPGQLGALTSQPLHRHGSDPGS
P2X purinoceptor 7, sequence (Q99572 whole entry): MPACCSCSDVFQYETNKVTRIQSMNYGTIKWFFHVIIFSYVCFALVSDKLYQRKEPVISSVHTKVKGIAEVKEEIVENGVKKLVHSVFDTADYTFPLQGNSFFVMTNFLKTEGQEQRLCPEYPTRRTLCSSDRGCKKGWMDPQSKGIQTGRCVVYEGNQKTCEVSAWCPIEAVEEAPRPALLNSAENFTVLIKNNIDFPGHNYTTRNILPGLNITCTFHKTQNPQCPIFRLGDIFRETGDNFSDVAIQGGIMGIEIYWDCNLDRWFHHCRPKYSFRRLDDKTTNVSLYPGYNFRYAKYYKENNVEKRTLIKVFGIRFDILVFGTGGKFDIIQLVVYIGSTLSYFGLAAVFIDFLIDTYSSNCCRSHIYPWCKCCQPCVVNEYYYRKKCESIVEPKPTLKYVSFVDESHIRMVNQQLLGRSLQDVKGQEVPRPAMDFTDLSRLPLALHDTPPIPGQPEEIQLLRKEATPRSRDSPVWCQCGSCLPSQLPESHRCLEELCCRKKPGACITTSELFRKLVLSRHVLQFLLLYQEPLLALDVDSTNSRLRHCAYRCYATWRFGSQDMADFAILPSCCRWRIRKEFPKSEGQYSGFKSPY

IC50 [2] | IC50 [3] | IC50 [4] | IC50 [5] | IC50 [6] | IC50 [7] | solubility at 72 h [8] | solubility at 72 h [9] | fraction unbound at 6 h, 1 µM [10] | fraction unbound at 6 h, 1 µM [11] | fraction unbound at 6 h, 1 µM [12] | Structure (SMILES) | IC50 [13] | also measured
– | – | – | – | – | – | – | – | – | – | – | O=C(NCC12CC3CC(CC(C3)C1)C2)c1cc(CCCNCCCO)ccc1Cl [AZD9056] | – | IC50 [1]: 0.01 to 0.013 µM
> 10 µM | > 10 µM | 2.8 µM | 2.1 µM | > 10 µM | > 10 µM | 2.1 µM (≈ 0.924 µg/mL) | 4.8 µM (≈ 2.11 µg/mL) | 0.024 | 0.042 | 0.052 | C[C@@H]1c2nnn(-c3cc(F)ccn3)c2CCN1C(=O)c1cccc(C(F)(F)F)c1Cl | > 10 µM | –
2.3 µM | > 10 µM | > 10 µM | 4.3 µM | > 10 µM | > 10 µM | 94.4 µM (≈ 39.9 µg/mL) | 48.2 µM (≈ 20.4 µg/mL) | 0.084 | 0.053 | 0.063 | C[C@@H]1c2nnn(-c3cnccn3)c2CCN1C(=O)c1cccc(C(F)(F)F)c1Cl | > 10 µM | inhibition [14]: Dose-dependent effect; Occ [15]: Dose-dependent effect; ED50 ([15]; 1 h): 0.3 mg/kg; bioavailability [16]: 77%; bioavailability [17]: 65%; half-life [18]: 2.4 h; Vd [19]: 3.3 L/kg; half-life [20]: 1.5 h; Vd [21]: 3 L/kg; clearance [22]: 33 mL/min/kg; clearance [23]: 46 mL/min/kg; fraction unbound at 5 h, 5 µM [24]: 0.05
